{"source": "patent US20190116792A1", "about": "(Dow Global Technologies LLC, priority 2016, published 2019)", "tested_on": "Chlorella sp.", "assay": "Algal efficacy testing of dry paint film coupons (modified ASTM 5589, 6-well plates)", "assay_type": "cell-based, Chlorella sp. ATCC 7516", "conditions": "for Total conc, ppm (concentration giving pass level ≥ 75% inhibition): total active ingredient in acrylic/silicone paint, dry film coupon, used as minimum inhibitory concentration for SI", "protocol": "These paints were then diluted with a biocide free acrylic/silicone based paint and mixed to prepare targeted concentrations of biocide combinations for the testing. The total biocides concentrations obtained were 125, 250, 500, 1000, 2000 and 5000 ppm. After biocides addition or dilution, the paints were mixed 90 seconds with the horse power shaker (AXEL 75M3372/Agitateur SO-10MI) until uniformity was achieved. […] After one day, the paints were applied to Schleicher & Schuell filter paper at 280 μm wet film thickness and dried for 3 days at room temperature avoiding direct exposure to sunlight. Square discs (1.8 cm×1.8 cm) were cut out from each panel and were used as the substrate for algal efficacy tests. This sample size allowed for an agar border when the sample disc was placed into the well of the test plate.\nAlgal efficacy was tested according to modified ASTM 5589 which is a standard accelerated test method for determining resistance of various coatings (including paints) to algal defacement. To accommodate for high-throughput screening, this method was scaled down from petri plates to 6-well plates. Bold Modified Basal Freshwater Nutrient Solution was used as growth medium for the algal culture and Bold's agar was used for the efficacy testing. A single coupon was placed with a pair of sterile forceps at the center of the agar plug (on top) with the painted surface facing upwards. The algal inoculum was prepared by diluting an exponentially growing culture of Chlorella sp. to 1×10^6 cfu/ml.\nEach well that contains a tested coupon was inoculated with 1750 μl of algal suspension (1×10^6 cfu/ml) making sure that the whole surface (paint film as well as the agar surrounding it) was evenly covered. The plates were incubated at room temp (21° C.-25° C.) with cyclic exposure to 14 hours fluorescent light followed by 10 hours darkness, for a period of three weeks.\nAt the end of the incubation period the samples were scored for percent inhibition regarding color intensity compared to the blank sample\nThe SI is calculated based on F. C. Kull et.\nSI=Qa/QA+Qb/QB • Qa=the concentration of Antimicrobial A in the blend • QA=the concentration of Antimicrobial A as the only biocide • Qb=the concentration of Antimicrobial B in the blend • QB=the concentration of Antimicrobial B as the only antimicrobial\nSI value of <1 in the formula indicates a synergism of the blended biocides exists.\nThe minimal targeted inhibition was set at 75%, meaning a coupon with at least 75% algal growth inhibition was considered as a pass.", "data": [{"smiles": "c1ccc2[nH]c(-c3cscn3)nc2c1", "note": "[Thiabendazole, 4-(1H-1,3-benzodiazol-2-yl)-1,3-thiazole]", "values": [{"measurement": "inhibition at 10000 ppm", "setting": "504 h, total conc 10000 ppm in paint, three weeks, color intensity vs blank", "value": 75, "unit": "%"}, {"measurement": "Total conc, ppm (concentration giving pass level ≥ 75% inhibition)", "setting": "three weeks", "value": 10000, "unit": "ppm"}]}, {"smiles": "O=c1[nH]c2c(c(=O)n1C1CCCCC1)CCC2", "note": "[Lenacil, 3-Cyclohexyl-6,7-dihydro-1H-cyclopentapyrimidine-2,4-(3H,5H)-dione]", "values": [{"measurement": "inhibition at 1000 ppm", "setting": "504 h", "value": 90, "unit": "%"}, {"measurement": "Total conc, ppm (concentration giving pass level ≥ 75% inhibition)", "setting": "three weeks", "value": "1,000 ppm"}]}]}
